Results published in US10774069B2, “Crystalline forms of a lysyl oxidase-like 2 inhibitor and methods of making” (PHARMAKEA, INC., priority 2016, dated 2020).
Entries after “also recorded” stand apart in the source; their conditions may differ. Where a name gives a salt, the structure may show the parent alone. Read-outs that look alike come from different tables or passages of the source. Each block holds one compound with its values, some of them ahead of it.

Assays:
[1] = Protocol: After each addition of solvent, the system was shaken gently for 10 minutes at 50° C. and then allowed to stand at room temperature for 5 min before the addition of a new aliquot of solvent. After the assessment was completed, any suspensions obtained were matured and clear solutions were cooled at 5° C.
Supernatants from maturation were allowed to slowly evaporate at ambient conditions.

[2] = Solid form storage stability at elevated temperature/humidity; assay type: physicochemical
Protocol: All retrieved solids from the crystallisation attempts were stored at 40° C. and 75% RH.

[3] = Stability studies (accelerated and ICH); assay type: physicochemical
Protocol: The compounds were assayed according to appearance, purity, related Substances, chiral purity, moisture, DSC, and XRPD

[4] = target: T1, LOXL2 (Homo sapiens (Human), UniProt Q9Y4K0); assay: Human LOXL2 CCM Assay (Amplex Red amine oxidase activity); assay type: biochemical; conditions: concentrated conditioned media from CHO cells expressing human LOXL2; 2 h at 37° C.
Protocol: Human LOXL2/CHO and human LOX/HEK stable cell lines were cultured under normal growth conditions in 15 cm tissue culture plates until cells were ˜80% confluent. Cells were then washed with PBS before the addition of 25-30 mL serum-free media (Phenol red-free DMEM/F12 mix w/glutamax containing pen/strep, 10-100 μM CuCl2±0.1% BSA). Cells were incubated at 37° C., 5% CO2 in serum-free media for 40-48 hours before the conditioned media was removed and centrifuged at 2000 rpm for 5 min at 4° C. to pellet cells/debris. The media was concentrated 10-20× using 10-30 MWCO centriprep columns according to the manufacturer's instructions (EMD Millipore, Billerica, Mass.) before aliquoting and storing at −80° C.
LOXL2 amine oxidase activity was evaluated by measuring Amplex Red fluorescence using 10-20× concentrated conditioned media (non BSA-containing) from CHO cells stably expressing human LOXL2. […] After the 2 h incubation, 5 μL of 10 mM 1,5-Diaminopentane (DAP) diluted in Assay Buffer and 10 μL of Amplex Red Mix (8.5 μL Assay Buffer+0.5 μL of 10 mM Amplex Red+1 μL of 500 U/ml Horseradish Peroxidase) were added and the plate mixed and immediately placed on the FlexStation for fluorescence measurements. Fluorescence was read in kinetic mode every 2 min for 0.5-1 hour at excitation=544 and emission=590. The amine oxidase activity was calculated from the slope of the linear portion of the curve. […]

[5] = Forced degradation study; assay type: physicochemical
[6] = Clear point / cloud point in IPA:water (Crystal 16); assay type: physicochemical; conditions: mixture of Forms 1 and 4
Protocol: The samples were then cooled from 70 back to −8° C. at the same rate. The clear point upon heating (at 100% transmission) and the cloud point upon re-cooling (<100% transmission) were recorded using the Crystal 16 instrument and the data is shown in Table 17. XRPD analysis was performed on all solids obtained post cooling.

[7] = target: T1, LOXL2; assay: In vitro assays, potency of enantiomers; assay type: biochemical
[8] = Preliminary free base solubility assessment of Compound I; assay type: physicochemical; conditions: organic solvent or mixture, thermodynamic from solid
Protocol: After each addition of solvent, the system was shaken at 50° C. for 10 min and then allowed to stand at room temperature for 5 min before the addition of a new aliquot of solvent.

[9] = physchem; conditions: 25 °C, water, thermodynamic from solid
[10] = Solid form storage stability at elevated temperature/humidity; assay type: physicochemical; remark: listed apart in the source
[11] = Gravimetric Vapor Sorption (GVS); assay type: physicochemical; conditions: 0 to 90% RH
From the text: Gravimetric Vapor Sorption (GVS) isotherms were obtained using an SMS DVS Intrinsic moisture sorption analyser, controlled by DVS Intrinsic Control software v1.0.1.2 (or v 1.0.1.3), over a range of 0 to 90% relative humidity (RH).

[12] = Aqueous and organic solubility of Form 1 of Compound 2; assay type: physicochemical

T1 sequence (Q9Y4K0 26-774): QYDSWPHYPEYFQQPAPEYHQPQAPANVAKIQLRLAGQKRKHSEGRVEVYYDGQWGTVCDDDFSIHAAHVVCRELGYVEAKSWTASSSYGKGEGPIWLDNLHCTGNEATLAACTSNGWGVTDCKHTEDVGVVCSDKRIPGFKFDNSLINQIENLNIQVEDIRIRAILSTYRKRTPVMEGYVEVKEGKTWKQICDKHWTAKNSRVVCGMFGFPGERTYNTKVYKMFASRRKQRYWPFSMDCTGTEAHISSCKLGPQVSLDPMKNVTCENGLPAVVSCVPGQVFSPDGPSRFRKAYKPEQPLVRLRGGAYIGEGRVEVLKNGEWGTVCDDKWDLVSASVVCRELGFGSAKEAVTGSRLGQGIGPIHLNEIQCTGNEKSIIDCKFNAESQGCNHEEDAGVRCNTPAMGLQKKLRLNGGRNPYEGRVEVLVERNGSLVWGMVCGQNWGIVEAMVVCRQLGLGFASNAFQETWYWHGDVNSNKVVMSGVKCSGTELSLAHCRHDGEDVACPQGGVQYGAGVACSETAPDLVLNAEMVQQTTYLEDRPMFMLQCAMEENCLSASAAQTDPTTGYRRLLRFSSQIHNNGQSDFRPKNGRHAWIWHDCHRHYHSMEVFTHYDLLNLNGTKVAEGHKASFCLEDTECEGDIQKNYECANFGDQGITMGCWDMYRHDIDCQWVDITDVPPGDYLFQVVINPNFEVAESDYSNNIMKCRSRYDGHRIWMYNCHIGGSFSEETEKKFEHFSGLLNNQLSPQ

solubility [1]: 200 − 100
Behaviour at 40° C./75% RH ([2]; 40° C./75% RH): deliquesces
7 days storage @ 40° C./75% RH, appearance ([2]; 40° C./75% RH): Glassy material
Structure (SMILES): Cl.NCc1cc(Oc2cccc(C(=O)N3C[C@@H](O)[C@H](F)C3)c2)nc(C(F)(F)F)c1 [Amorphous Compound 1]

Changes in purity or absorption of moisture ([3]; 3 month accelerated condition (40° C./75% RH)): no significant changes
IC50 [4]: < 300 nM
Structure (SMILES): Cl.NCc1cc(Oc2cccc(C(=O)N3C[C@@H](O)[C@H](F)C3)c2)nc(C(F)(F)F)c1 [Compound 1, (R,R)-trans-(3-((4-(aminomethyl)-6-(trifluoromethyl)pyridin-2-yl)oxy)phenyl)(3-fluoro-4-hydroxypyrrolidin-1-yl)methanone, hydrochloride salt]

Solid state stability, heat ([5]; solid, 100° C., 24 hours): stable
Solid state stability, light ([5]; solid, light max 365 nm, 24 hours): stable
Solution state stability, heat ([5]; solution, 50° C. for 24 hours): stable
All attributes tested (appearance, purity, related substances, chiral purity, moisture, DSC, XRPD) ([3]; 1 month data, long-term and accelerated conditions of 1-year and 2-year ICH studies): within limits
Clear Point Temperature ([6]; 5 mg in 1 mL IPA:water 95:5): 6.9 °C
Clear Point Temperature ([6]; 10 mg in 1 mL IPA:water 95:5): 20.3 °C
Clear Point Temperature ([6]; 20 mg in 1 mL IPA:water 95:5): 37.2 °C
Clear Point Temperature ([6]; 30 mg in 1 mL IPA:water 95:5): 48.5 °C
Cloud Point Temperature ([6]; 30 mg in 1 mL IPA:water 95:5): −7.8 °C
Clear Point Temperature ([6]; 40 mg in 1 mL IPA:water 95:5): 55.8 °C
Cloud Point Temperature ([6]; 40 mg in 1 mL IPA:water 95:5): −1.8 °C
Clear Point Temperature ([6]; 60 mg in 1 mL IPA:water 95:5): 64 °C
Cloud Point Temperature ([6]; 60 mg in 1 mL IPA:water 95:5): 14.5 °C
Clear Point Temperature ([6]; 70 mg in 1 mL IPA:water 95:5): 68.6 °C
Cloud Point Temperature ([6]; 70 mg in 1 mL IPA:water 95:5): 24.7 °C
Structure (SMILES): NCc1cc(Oc2cccc(C(=O)N3C[C@@H](O)[C@H](F)C3)c2)nc(C(F)(F)F)c1 [Compound 2, (R,R)-trans-(3-((4-(aminomethyl)-6-(trifluoromethyl)pyridin-2-yl)oxy)phenyl)(3-fluoro-4-hydroxypyrrolidin-1-yl)methanone, methanesulfonate salt]

Potency relative to the (S,S)-isomer [7]: less than 2 fold
solubility at 10 min ([8]; 2-Propanol): > 100 mg/mL
solubility at 10 min ([8]; Acetonitrile): > 100 mg/mL
solubility at 10 min ([8]; Dichloromethane): > 100 mg/mL
solubility at 10 min ([8]; Ethanol): > 100 mg/mL
solubility at 10 min ([8]; Ethyl Acetate): > 100 mg/mL
solubility at 10 min ([8]; Hexane): > 100 mg/mL
solubility at 10 min ([8]; Tetrahydrofuran): > 100 mg/mL
solubility at 10 min ([8]; Toluene, up to 50 vol): > 20 mg/mL
Structure (SMILES): NCc1cc(Oc2cccc(C(=O)N3C[C@@H](O)[C@H](F)C3)c2)nc(C(F)(F)F)c1 [Compound I, (R,R)-trans-(3-((4-(aminomethyl)-6-(trifluoromethyl)pyridin-2-yl)oxy)phenyl)(3-fluoro-4-hydroxypyrrolidin-1-yl)methanone]

solubility [9]: ≥ 1000 mg/mL
Solubility in maturation solvents [1]: insoluble
Behaviour on storage ([2]; 40° C. and 75% RH, after 24 hours): deliquescing
Form change on storage ([2]; 40° C./75% RH for one week): transforms to Form 2
7 days storage @ 40° C./75% RH, appearance ([2]; 40° C./75% RH): Waxy/glassy solid +
7 days storage @ 40° C./75% RH, resulting XRPD form ([2]; 40° C./75% RH): particles - Form 2
Structure (SMILES): Cl.NCc1cc(Oc2cccc(C(=O)N3C[C@@H](O)[C@H](F)C3)c2)nc(C(F)(F)F)c1 [Form 1 of Compound 1]
Hygroscopicity [10]: hygroscopic solid; also recorded: hygroscopic form

solubility ([12]; aqueous medium, pH 2, aqueous buffer, read-out: Aqueous Solubility): > 107 mg/mL
solubility ([12]; aqueous medium, pH 7.4, aqueous buffer, read-out: Aqueous Solubility): > 107 mg/mL
solubility ([12]; aqueous medium, pH 10, aqueous buffer, read-out: Aqueous Solubility): > 85 mg/mL
solubility ([12]; ethanol, organic solvent or mixture, EtOH, read-out: Organic Solubility, Qualitative Solubility): ~15 mg/mL
solubility ([12]; ethanol/water (90:10), isopropanol/water (90:10), organic solvent or mixture, read-out: Organic Solubility, Qualitative Solubility): ~50 mg/mL
solubility ([12]; methanol, tetrahydrofuran/water (90:10), organic solvent or mixture, read-out: Organic Solubility, Qualitative Solubility): ~100 mg/mL
solubility ([12]; organic solvent or mixture, isopropyl acetate, isopropanol, methyl-ethyl ketone, acetone, ethanol, methyl-t-butyl ether, 1,4 dioxane, toluene, tetrahydrofuran, dichloromethane, acetonitrile, read-out: Organic Solubility, Qualitative Solubility): ≤ 10 mg/mL
solubility ([12]; water, dimethyl sulfoxide, read-out: Organic Solubility, Qualitative Solubility): > 200 mg/mL
Structure (SMILES): CS(=O)(=O)O.NCc1cc(Oc2cccc(C(=O)N3C[C@@H](O)[C@H](F)C3)c2)nc(C(F)(F)F)c1 [Form 1 of Compound 2]
XRPD after the GVS analysis [11]: X-ray powder diffraction (XRPD): Unchanged
Polymorph stability on storage ([2]; 7 days at 40° C./75% RH and 25° C./97% RH): Form 1, which is stable for 7 days at 40° C./75% RH and 25° C./97%

Thermal stability [10]: thermally stable
7 days storage @ 40° C./75% RH, appearance ([2]; 40° C./75% RH): Waxy/glassy solid +
7 days storage @ 40° C./75% RH, resulting XRPD form ([2]; 40° C./75% RH): particles - Form 2
Physical change over time ([2]; over time): converts over time to a waxy solid
Behaviour on storage ([2]; storage conditions (40° C. and 75% RH) for 1 week): remained unchanged
Structure (SMILES): Cl.NCc1cc(Oc2cccc(C(=O)N3C[C@@H](O)[C@H](F)C3)c2)nc(C(F)(F)F)c1 [Form 2 of Compound 1]

Form change on storage ([10]; 7 days at 25° C./97% RH): change also occurs
Form change after GVS and storage ([2]; after GVS analysis and 7 days at 40° C./75% RH): phase transformation towards Form 1
Form conversion in humidity ([2]; in humidity): converts to Form 1
Structure (SMILES): CS(=O)(=O)O.NCc1cc(Oc2cccc(C(=O)N3C[C@@H](O)[C@H](F)C3)c2)nc(C(F)(F)F)c1 [Form 2 of Compound 2]

XRPD change on heating and storage ([2]; heating to 130° C. and upon the storage conditions): changed to Form 1
Structure (SMILES): CS(=O)(=O)O.NCc1cc(Oc2cccc(C(=O)N3C[C@@H](O)[C@H](F)C3)c2)nc(C(F)(F)F)c1 [Form 3 of Compound 2]
